One assay addresses COX-1 (Ovis aries, UniProt P05979). The experiment in a line: COX inhibitor screening assay kit, COX-1. The class given is biochemical. The settings on record: three separate experiments. Here is the method:
(§1) In test tubes, 25 mM Tris-HCl, pH 8.0, containing 5 mM EDTA, phenol, and 1 mM hematin was added. The test compounds were dissolved in DMSO and added in concentrations ranging from […] Dimethyl sulfoxide alone was applied to control test containers. COX-1 or COX-2 enzymes were added to the test tubes, which were then preincubated for 10 minutes at 37° C. The arachidonic acid substrate was added, and the tubes were further incubated at 37° C. for 2 minutes. The compound's immunochemical assay was used to calculate the amount of prostaglandin produced.
(§2) Three separate experiments were used to calculate the IC50 values. The selectivity index was calculated as follows: […]

In another assay the target is COX-2 (Homo sapiens (Human), UniProt P35354). The experiment in a line: COX inhibitor screening assay kit, COX-2. The class given is biochemical. Particulars: for SI (selectivity index): calculated from COX-1 and COX-2 IC50; for IC50: three separate experiments. Here is the method: as §1, §2
COX-2, sequence (P35354 18-604): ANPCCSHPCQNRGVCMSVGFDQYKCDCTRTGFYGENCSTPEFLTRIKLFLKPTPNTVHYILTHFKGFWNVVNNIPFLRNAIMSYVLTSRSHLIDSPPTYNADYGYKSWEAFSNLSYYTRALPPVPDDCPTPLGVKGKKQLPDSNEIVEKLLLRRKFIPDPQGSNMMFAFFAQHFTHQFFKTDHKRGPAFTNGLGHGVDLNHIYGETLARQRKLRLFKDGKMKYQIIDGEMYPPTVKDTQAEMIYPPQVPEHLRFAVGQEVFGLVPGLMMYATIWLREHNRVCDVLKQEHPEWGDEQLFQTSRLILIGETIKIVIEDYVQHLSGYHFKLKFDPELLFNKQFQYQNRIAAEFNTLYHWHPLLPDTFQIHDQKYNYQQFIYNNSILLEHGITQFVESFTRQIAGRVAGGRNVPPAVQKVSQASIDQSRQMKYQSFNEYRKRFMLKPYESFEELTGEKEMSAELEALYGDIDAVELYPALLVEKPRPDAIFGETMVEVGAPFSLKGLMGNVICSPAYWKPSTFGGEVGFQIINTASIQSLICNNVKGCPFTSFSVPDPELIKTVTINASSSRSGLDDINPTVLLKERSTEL

COX-1, sequence (P05979 25-600 limits assumed): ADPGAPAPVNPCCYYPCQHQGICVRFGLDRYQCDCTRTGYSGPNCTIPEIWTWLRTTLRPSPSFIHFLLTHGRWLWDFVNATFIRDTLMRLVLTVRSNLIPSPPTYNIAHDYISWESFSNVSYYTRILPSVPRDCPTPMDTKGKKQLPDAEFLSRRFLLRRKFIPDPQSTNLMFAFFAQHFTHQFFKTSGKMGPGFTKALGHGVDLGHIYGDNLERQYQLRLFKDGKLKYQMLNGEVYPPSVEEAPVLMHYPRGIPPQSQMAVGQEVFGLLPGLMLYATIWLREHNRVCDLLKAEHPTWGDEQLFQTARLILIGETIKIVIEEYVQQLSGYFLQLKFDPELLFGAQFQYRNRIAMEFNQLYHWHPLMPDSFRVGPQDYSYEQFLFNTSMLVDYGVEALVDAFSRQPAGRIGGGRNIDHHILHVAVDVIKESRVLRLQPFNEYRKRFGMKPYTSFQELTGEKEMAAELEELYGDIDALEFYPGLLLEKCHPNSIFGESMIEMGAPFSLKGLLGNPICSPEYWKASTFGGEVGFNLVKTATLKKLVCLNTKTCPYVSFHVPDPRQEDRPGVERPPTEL

For the compound `COc1ccc(CN(Cc2ccc(F)cc2)CC2CCCO2)cc1CO` (stereo not drawn) [Compound 1], at COX-1, 7.62 ± 0.05 µM corresponded to half-maximal inhibition (IC50). Also, on COX-2, the “SI (selectivity index)” value is listed as 36.3 and the IC50 was found to be 0.21 ± 0.01 µM.

Turning to `O=C(O)COc1ccc(Cl)cc1C1CC(=O)Nc2cc3[nH]ncc3cc21` (stereo not drawn) [Compound 4, [4-chloro-2-(7-oxo-5,6,7,8-tetrahydro-1H-pyrazole[4,3-g]quinoline-5-yl)phenoxy]acetic acid], the IC50 against COX-1 came to 9.19 ± 0.046 µM; at COX-2, 0.097 ± 0.015 µM. Further, the “SI (selectivity index)” value at COX-2 is 95.068.

Regarding `O=C(O)CC1COCCN1Cc1cccc(-c2ccccn2)c1` (stereo not drawn) [Compound 3, {4-[3-(2-pyridinyl)benzyl]-3-morpholinyl}acetic acid], half-maximal inhibition at COX-1 (IC50) was put at 11.5 ± 0.13 µM. Besides, at COX-2, the “SI (selectivity index)” value is given as 190.88 and the midpoint of inhibition, the IC50, lay at 0.06 ± 0.075 µM.

On COX-1, `COc1cccc(-c2nn(-c3ccccc3)cc2CN(C)CCc2cn[nH]c2)c1` [Compound 2, N-{[3-(3-methoxyphenyl)-1-phenyl-1H-pyrazol-4-yl]methyl}-N-methyl-2-(1H-pyrazol-4-yl)ethanamine] registered a half-maximal inhibitory concentration (IC50) of 10.6 ± 0.33 µM. On COX-2, the “SI (selectivity index)” value is 132.64 and the IC50 came out at 0.08 ± 0.009 µM.

As usually defined, the IC50 is the concentration that gives 50% inhibition. High values mean a need for much substance, low ones inhibition by little substance.

Source of the values: patent publication US11786535B1, “Methods of inhibiting cyclooxygenase” (KING FAISAL UNIVERSITY, priority 2023, dated 2023).
